Results: US5298494A, “Monosaccharides having anti-proliferation and anti-inflammatory activity, compositions and uses thereof” (Greenwich Pharmaceuticals Incorporated, priority 1993, dated 1994)
Where two headings read alike, the source gives them in different places.

System: T lymphocytes (normal mouse spleen cells) stimulated with ConA
Assay: Mouse Spleen Cell ConA Blastogenesis Assay
Type: cell-based, mouse (C57Bl/6)
Conditions: for inhibition at 10 µg/mL / inhibition at 100 µg/mL / inhibition at 300 µg/mL / inhibition at 750 µg/mL / inhibition at 1 µg/mL / inhibition at 25 µg/mL / inhibition at 2.5 µg/mL / inhibition at 0.01 µg/mL / inhibition at 0.1 µg/mL: Mus musculus, T-lymphocyte; for inhibition at 2.5 µg/mL: compound 2.5 ug/ml; for inhibition at 0.1 µg/mL: compound 0.1 ug/ml
From the text: It is well known that several plant lectins, when cultured in vitro with lymphocytes, stimulate cellular activation and proliferation. Concanavolin, (ConA) selectively stimulates the blastogenic response of T lymphocytes.
Six to 8 week old male C57Bl/6 mice were purchased from Harlan Sprague Dawley (Indianapolis, Ind.).
Spleens were removed and were homogenized to obtain a single cell suspension. Erythrocytes were lysed by hypotonic shock. Upon determination of the viability and concentration of the lymphoid cells, they were adjusted to 4×10^6 cells/ml in culture medium (RPMI-1640) supplemented with 10% fetal bovine serum; 100 ug/ml streptomycin; 100 U/ml penicillin, 0.2M hepes buffer; 5×10^-5 M 2-mercaptoethanol and 2 mM glutamine). seeded into microtiter plate wells at 2×10^5 cells/0.050 ml/well. To these cultures were added various doses of experimental compounds and ConA at a final concentration of 4 or 1 ug/ml. Control cultures consisted of cells, ConA and culture medium containing the vehicle, DMSO only. […] For the testing of the methyl 1,3-O-isopropylidene-6-O-n-heptyl-α-D-fructofuranoside compound indomethacin and NDGA were used as controls. All cultures were run in triplicate.
Solutions of compounds of the invention in DMSO were prepared and dilutions were made in culture medium. Assay concentrations were either: 1, 2.5, 10, 25, 100, 300 and 750 ug/ml or 0.001, 0.01, 0.1, 1, 2.5, 10, 25 and 100 ug/ml.
Cultures were incubated for 3 days at 37° C. in a humidified atmosphere of 5% of CO2 in air. For the last 18 hours of culture, 1 uCi of ^3 H-thymidine was also incubated in each well. The cells were precipitated by a multi-channel harvester. The amount of ^3 H-thymidine incorporated by the cultures, as a measure of cell proliferation, was measured in a liquid scintillation counter. The amount of radioactive incorporation is proportional to the amount of cellular proliferation in individual wells. The students T test was used to determine the significance of the difference between experimental and control values.

[1] = ConA 1 ug/ml, compound 10 ug/ml
[2] = ConA 1 ug/ml, compound 100 ug/ml
[3] = ConA 1 ug/ml, compound 300 ug/ml
[4] = ConA 1 ug/ml, compound 750 ug/ml
[5] = ConA 4 ug/ml, compound 10 ug/ml
[6] = ConA 4 ug/ml, compound 25 ug/ml
[7] = ConA 4 ug/ml, compound 100 ug/ml
[8] = ConA 4 ug/ml, compound 300 ug/ml
[9] = ConA 4 ug/ml, compound 750 ug/ml
[10] = ConA 1 ug/ml, compound 10 ug/ml, read-out: % change from control, ConA blastogenic response
[11] = ConA 1 ug/ml, compound 100 ug/ml, read-out: % change from control, ConA blastogenic response
[12] = ConA 4 ug/ml, compound 1 ug/ml, read-out: % change from control, ConA blastogenic response
[13] = ConA 4 ug/ml, compound 10 ug/ml, read-out: % change from control, ConA blastogenic response
[14] = ConA 4 ug/ml, compound 25 ug/ml, read-out: % change from control, ConA blastogenic response
[15] = ConA 4 ug/ml, compound 100 ug/ml, read-out: % change from control, ConA blastogenic response
[16] = ConA 1 ug/ml, compound 1 ug/ml, read-out: % change from control, ConA blastogenic response
[17] = ConA 1 ug/ml, read-out: % change from control, ConA blastogenic response
[18] = ConA 1 ug/ml, compound 25 ug/ml, read-out: % change from control, ConA blastogenic response
[19] = ConA 4 ug/ml, read-out: % change from control, ConA blastogenic response

CC1(C)OC2OC3C(CSCCN4CCCC4)OC(C)(C)OC3C2O1 [IIIp, 1,2:3,5-Di-O-Isopropylidene-6-deoxy-6-thio-2'-(ethyl-N"-pyrrolidyl)-α-D-glucofuranose]
Blastogenic response of normal spleen cells to Con-A (ConA 1 ug/ml, compound 1 ug/ml): 118,909 × 10^3 cpm | % change from control, ConA blastogenic response [1]: -23% | Blastogenic response of normal spleen cells to Con-A [1]: 55,282 ± 17,762 cpm | Blastogenic response of normal spleen cells to Con-A (ConA 1 ug/ml, compound 25 ug/ml): 101,268 ± 23,586 cpm | % change from control, ConA blastogenic response [2]: -11% | Blastogenic response of normal spleen cells to Con-A [2]: 64,122 ± 7,847 cpm | % change from control, ConA blastogenic response [3]: -63% | Blastogenic response of normal spleen cells to Con-A [3]: 26,948 ± 13,540 cpm | % change from control, ConA blastogenic response [4]: -94% | Blastogenic response of normal spleen cells to Con-A [4]: 3,976 ± 1,922 cpm | % change from control, ConA blastogenic response (ConA 4 ug/ml, compound 1 ug/ml): -17% | Blastogenic response of normal spleen cells to Con-A (ConA 4 ug/ml, compound 1 ug/ml): 81,109 × 10^3 cpm | % change from control, ConA blastogenic response [5]: -40% | Blastogenic response of normal spleen cells to Con-A [5]: 58,381 ± 7,921 cpm | % change from control, ConA blastogenic response [6]: -33% | Blastogenic response of normal spleen cells to Con-A [6]: 65,424 ± 13,480 cpm | % change from control, ConA blastogenic response [7]: -55% | Blastogenic response of normal spleen cells to Con-A [7]: 43,864 ± 9,618 cpm | % change from control, ConA blastogenic response [8]: -91% | Blastogenic response of normal spleen cells to Con-A [8]: 8,310 ± 945 × 10^3 cpm | % change from control, ConA blastogenic response [9]: -91% | Blastogenic response of normal spleen cells to Con-A [9]: 8,402 ± 3,070 cpm | inhibition at 10 µg/mL [10]: 23% | inhibition at 100 µg/mL [11]: 11% | inhibition at 300 µg/mL (ConA 1 ug/ml, compound 300 ug/ml, read-out: % change from control, ConA blastogenic response): 63% | inhibition at 750 µg/mL (ConA 1 ug/ml, compound 750 ug/ml, read-out: % change from control, ConA blastogenic response): 94% | inhibition at 1 µg/mL [12]: 17% | inhibition at 10 µg/mL [13]: 40% | inhibition at 25 µg/mL [14]: 33% | inhibition at 100 µg/mL [15]: 55% | inhibition at 300 µg/mL (ConA 4 ug/ml, compound 300 ug/ml, read-out: % change from control, ConA blastogenic response): 91% | inhibition at 750 µg/mL (ConA 4 ug/ml, compound 750 ug/ml, read-out: % change from control, ConA blastogenic response): 91% | strong antiproliferative effect on ConA blastogenic response (concentration not given): greater than -50 % of control

CC1(C)OCC(C2OC3OC(C)(C)OC3C2NCCCO)O1 [IIk, 1,2:5,6-Di-O-isopropylidene-3-deoxy-3-amino-1'-(3'-hydroxy-n-propyl)-α-D-glucofuranose]
inhibition at 100 µg/mL (100 ug/ml, read-out: strong inhibition of ConA stimulated T lymphocyte proliferation): < 50% | inhibition at 1 µg/mL [16]: 20% | inhibition at 2.5 µg/mL [17]: 31% | inhibition at 10 µg/mL [10]: 38% | inhibition at 25 µg/mL [18]: 45% | inhibition at 100 µg/mL [11]: 95% | inhibition at 1 µg/mL [12]: 5% | inhibition at 2.5 µg/mL [19]: 0% | inhibition at 10 µg/mL [13]: 4% | inhibition at 25 µg/mL [14]: 5% | inhibition at 100 µg/mL [15]: 83%

CCCCCCCC(=O)O[C@@H]1[C@@H](CO)O[C@@]2(OC)COC(C)(C)O[C@@H]12 [Ih, methyl 1,3-O-isopropylidene-4-O-octanoyl-α-D-fructofuranoside]
inhibition at 0.01 µg/mL (ConA 1 ug/ml, 0.01 ug/ml, read-out: % Change from Control (Table II)): -12% | inhibition at 0.01 µg/mL (ConA 1 ug/ml, compound 0.01 ug/ml, read-out: % change from control, ConA blastogenic response): -32% | inhibition at 0.1 µg/mL [17]: -29% | inhibition at 1 µg/mL [16]: -61% | inhibition at 2.5 µg/mL [17]: -63% | inhibition at 10 µg/mL [10]: 4% | inhibition at 25 µg/mL [18]: -39% | inhibition at 100 µg/mL [11]: 74% | inhibition at 0.01 µg/mL (ConA 4 ug/ml, 0.01 ug/ml, read-out: % Change from Control (Table II)): -18% | inhibition at 0.01 µg/mL (ConA 4 ug/ml, compound 0.01 ug/ml, read-out: % change from control, ConA blastogenic response): -29% | inhibition at 0.1 µg/mL [19]: -14% | inhibition at 1 µg/mL [12]: -16% | inhibition at 2.5 µg/mL [19]: -8% | inhibition at 10 µg/mL [13]: 22% | inhibition at 25 µg/mL [14]: 14% | inhibition at 100 µg/mL [15]: 90%
